These are literature values, as cited in article PMC11915035, “Characterization of [^3H]Propionylated Human Peptide YY-A New Probe for Neuropeptide Y Y2 Receptor Binding Studies” (ACS Pharmacology & Translational Science, 2025).

Read-outs that look alike come from different tables or passages of the source.

Series [1] has as its target calf hippocampus membrane preparation. The conditions noted are these: Krebs–Ringer/20 mM HEPES, 137 mM Na+; species of peptide not indicated; ref Czerwiec et al.[34]. The source says:
(§1) Table 1 Reported Peptidic Radioligands Used for Y2R Binding Studies | column: Kd [nM]

For a further series, the target named is pY2R. Conditions: COS-7 pY2R; 50 mM HEPES, 0 mM Na+; species of peptide not indicated; ref Rose et al.[2].
Source text: as §1

In another series the test system is Y2R. The conditions noted are these: read-out: literature IC50, sodium-containing buffer.
In another series the test system is Y1R, Y2R, Y4R, Y5R. The conditions noted are these: ref 2−4. The source says: Activation of all four receptor subtypes is induced by the homologous neuropeptides NPY, peptide YY (PYY), and pancreatic polypeptide (PP).[1]
Series [2] has as its target rat hippocampal membrane preparation. Conditions: KRP buffer, […] Na+; species of peptide not indicated; ref Dumont et al.[25].
Source text: as §1

Turning to “N-[^3H]propionyl-NPY: tritiated NPY derivative, most likely [^3H]propionylated at the ε-amino group of Lys^4”, the Kd in series [1] is 0.7 nM.

As for “[^125I]PYY: iodine-125 labeled derivative of PYY; species porcine or not indicated”, on pY2R, the Kd was 0.27 nM.

With “[^125I]NPY: iodine-125 labeled derivative of NPY; species human or not indicated”, on pY2R, the Kd was 0.58 nM.

For the molecule `CCN(CC)C(=O)C(c1ccccc1)N1CCN(c2ccc(NC(=O)c3ccccc3-c3cccnc3)cc2F)CC1` (stereo not shown) [JNJ31020028, N-(4–4-[2-(diethylamino)-2-oxo-1-phenylethyl]piperazin-1-yl-3-fluorophenyl)-2-pyridin-3-ylbenzamide], the IC50 was 8.5 nM with Y2R (ref Shoblock et al.[39]) and 6 nM in the series with Y2R (ref Swanson et al.[59]).

As to pancreatic polypeptide [PP], in the series with Y1R, Y2R, Y4R, Y5R, the “YR binding preference” value is “clear preference for Y4R over the other YRs”.

As for “[^125I]PYY (3–36): iodine-125 labeled derivative of PYY”, the Kd in series [2] is 0.013 nM.
